Reference: US8785653B2, “(3-aryl-1H-1,2,4-triazol-5-yl)-linked heterocycle derivatives” (H. Lundbeck A/S, priority 2009, dated 2014)

Biological target: T1, PDE10A enzyme (Homo sapiens, UniProt Q9Y233)
T1 construct: made in house; host or cells: E. coli BL21(DE3)
Assay: PDE10A inhibition assay
Format: biochemical
Conditions: 3H-labelled cAMP substrate 5 nM, SPA beads, one hr at room temperature
Method: Active PDE10A enzyme is prepared in a number of ways for use in PDE assays (Loughney, K. et al. Gene 1999, 234, 109-117; Fujishige, K. et al. Eur J Biochem. 1999, 266, 1118-1127 and Soderling, S. et al. Proc. Natl. Acad. Sci. 1999, 96, 7071-7076). PDE10A can be expressed as full-length proteins or as truncated proteins, as long as they express the catalytic domain. PDE10A can be prepared in different cell types, for example insect cells or E. coli. An example of a method to obtain catalytically active PDE10A is as follows: The catalytic domain of human PDE10A (amino acids 440-779 from the sequence with accession number NP 006652) is amplified from total human brain total RNA by standard RT-PCR and is cloned into the BamH1 and Xho1 sites of the pET28a vector (Novagen). Expression in coil is performed according to standard protocols. Briefly, the expression plasmids are transformed into the BL21(DE3) E. coli strain, and 50 mL cultures inoculated with the cells allowed to grow to an OD600 of 0.4-0.6 before protein expression is induced with 0.5mM IPTG. Following induction, the cells are incubated overnight at room temperature, after which the cells are collected by centrifugation. Cells expressing PDE10A are resuspended in 12 mL (50 mM TRIS-HCl-pH8.0, 1 mM MgCl2 and protease inhibitors). The cells are lysed by sonication, and after all cells are lysed, TritonX100 is added according to Novagen protocols.
A PDE10A assay may for example, be performed as follows: The assay is performed in 60 uL samples containing a fixed amount of the relevant PDE enzyme (sufficient to convert 20-25% of the cyclic nucleotide substrate), a buffer (50 mM HEPES7.6; 10 mM MgCl2; 0.02% Tween20), 0.1 mg/mI BSA, 225 pCi of ^3H-labelled cyclic nucleotide substrate, tritium labeled cAMP to a final concentration of 5 nM and varying amounts of inhibitors. Reactions are initiated by addition of the cyclic nucleotide substrate, and reactions are allowed to proceed for one hr at room temperature before being terminated through mixing with 15 uL 8 mg/mL yttrium silicate SPA beads (Amersham). The beads are allowed to settle for one hr in the dark before the plates are counted in a Wallac 1450 Microbeta counter. The measured signal can be converted to activity relative to an uninhibited control (100%) and IC50 values can be calculated using the XIfit extension to EXCEL.

T1 sequence (Q9Y233 716-1055): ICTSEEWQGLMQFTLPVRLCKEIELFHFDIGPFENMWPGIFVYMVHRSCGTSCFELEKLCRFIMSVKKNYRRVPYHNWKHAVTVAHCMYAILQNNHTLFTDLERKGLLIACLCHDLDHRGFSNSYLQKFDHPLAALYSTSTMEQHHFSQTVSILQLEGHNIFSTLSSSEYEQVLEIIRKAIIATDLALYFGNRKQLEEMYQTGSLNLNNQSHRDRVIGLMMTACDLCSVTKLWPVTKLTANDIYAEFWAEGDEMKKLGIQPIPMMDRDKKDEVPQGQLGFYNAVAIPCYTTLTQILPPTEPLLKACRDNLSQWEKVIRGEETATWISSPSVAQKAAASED

## Cc1ncc(C)n2nc(/C=C/c3nc(-c4ccco4)n(C)n3)nc12 [2-[(E)-2-(5-Furan-2-yl-1-methyl-1H-[1,2,4]triazol-3-yl)-vinyl]-5,8-dimethyl-[1,2,4]triazolo[1,5-a]pyrazine]
  IC50: 60 nM

## Cc1ncc(C)n2nc(CCc3nc(-c4cscn4)nn3C)nc12 [5,8-Dimethyl-2-[2-(2-methyl-5-thiazol-4-yl-2H-[1,2,4]triazol-3-yl)-ethyl-]-[1,2,4]triazolo[1,5-a]pyrazine]
  IC50: 25 nM

## Cc1ncc(C)n2nc(CCc3nc(-c4ccsc4)nn3C)nc12 [5,8-Dimethyl-2-[2-(2-methyl-5-thiophen-3-yl-2H-[1,2,4]triazol-3-yl)-ethyl]-[1,2,4]triazolo[1,5-a]pyrazine]
  IC50: 5.3 nM

## Cc1ncc(C)n2nc(CCc3nc(-c4ccccc4)nn3CCO)nc12 [2-{5-[2-(5,8-Dimethyl-[1,2,4]triazolo[1,5-a]pyrazin-2-yl)-ethyl]-3-phenyl-[1,2,4]triazol-1-yl}-ethanol]
  IC50: 69 nM

## Cc1ncc(C)n2nc(CCc3nc(-c4ccccc4)nn3CCC#N)nc12 [3-{5-[2-(5,8-Dimethyl-[1,2,4]triazolo[1,5-a]pyrazin-2-yl)-ethyl]-3-phenyl-[1,2,4]triazol-1-yl}-propionitrile]
  IC50: 25 nM

## Cc1cccc2nc(CSc3nc(-c4ccccc4)n[nH]3)nn12 [5-Methyl-2-(5-phenyl-2H-[1,2,4]triazol-3-ylsulfanylmethyl)-[1,2,4]triazolo[1,5-a]pyridine]
  IC50: 200 nM

## Cc1ncc(C)n2nc(CSc3nc(-c4ccccc4)n[nH]3)nc12 [5,8-Dimethyl-2-(5-phenyl-2H-[1,2,4]triazol-3-ylsulfanylmethyl)-[1,2,4]triazolo[1,5-a]pyrazine]
  IC50: 53 nM

## Cc1ncc(C)n2nc(CCc3nc(-c4ccccc4)nn3CCCN)nc12 [3-{5-[2-(5,8-Dimethyl-[1,2,4]triazolo[1,5-a]pyrazin-2-yl)-ethyl]-3-phenyl-[1,2,4]triazol-1-yl}-propylamine]
  IC50: 100 nM

## CCOC(=O)Cn1nc(-c2ccccc2)nc1CCc1nc2c(OC)ccc(C)n2n1 [{5-[2-(8-Methoxy-5-methyl-[1,2,4]triazolo[1,5-a]pyridin-2-yl)-ethyl]-3-phenyl-[1,2,4]triazol-1-yl}-acetic acid ethyl ester]
  IC50: 81 nM

## Cc1ncc(C)n2nc(CCc3nc(-c4ncccn4)nn3C)nc12 [5,8-Dimethyl-2-[2-(2-methyl-5-pyrimidin-2-yl-2H-[1,2,4]triazol-3-yl)-ethyl]-[1,2,4]triazolo[1,5-a]pyrazine]
  IC50: 53 nM

## CCc1ccc(C)n2nc(CCc3nc(-c4ccccc4)nn3C)nc12 [8-Ethyl-5-methyl-2-[2-(2-methyl-5-phenyl-2H-[1,2,4]triazol-3-yl)-ethyl]-[1,2,4]triazolo[1,5-a]pyridine]
  IC50: 7.5 nM

## Cc1cccc2nc(CCc3nc(-c4ccccc4)nn3C)nn12 [5-Methyl-2-[2-(2-methyl-5-phenyl-2H-[1,2,4]triazol-3-yl)-ethyl]-[1,2,4]triazolo[1,5-a]pyridine]
  IC50: 220 nM

## COc1ccc(C)n2nc(CCc3nc(-c4ccccc4)nn3CCO)nc12 [2-{5-[2-(8-Methoxy-5-methyl-[1,2,4]triazolo[1,5-a]pyridin-2-yl)-ethyl]-3-phenyl-[1,2,4]triazol-1-yl}-ethanol]
  IC50: 23 nM

## COCCn1nc(-c2ccccc2)nc1CCc1nc2c(OC)ccc(C)n2n1 [8-Methoxy-2-{2-[2-(2-methoxy-ethyl)-5-phenyl-2H-[1,2,4]triazol-3-yl]-ethyl}-5-methyl-[1,2,4]triazolo[1,5-a]pyridine]
  IC50: 62 nM

## Cc1ncc(C)n2nc(CCc3nc(-c4ccco4)nn3C)nc12 [2-[2-(5-Furan-2-yl-2-methyl-2H-[1,2,4]triazol-3-yl)-ethyl]-5,8-dimethyl-[1,2,4]triazolo[1,5-a]pyrazine]
  IC50: 4.6 nM

## Cc1ncc(C)n2nc(CCc3nc(-c4ccccc4)nn3C)nc12 [5,8-Dimethyl-2-[2-(2-methyl-5-phenyl-2H-[1,2,4]triazol-3-yl)-ethyl]-[1,2,4]triazolo[1,5-a]pyrazine]
  IC50: 15 nM

## COc1ccc(C)n2nc(CSc3nc(-c4ccccc4)n[nH]3)nc12 [8-Methoxy-5-methyl-2-(5-phenyl-2H-[1,2,4]triazol-3-ylsulfanylmethyl)-[1,2,4]triazolo[1,5-a]pyridine]
  IC50: 52 nM

## Cc1csc(-c2nc(CCc3nc4c(C)ncc(C)n4n3)n(C)n2)n1 [5,8-Dimethyl-2-{2-[2-methyl-5-(4-methyl-thiazol-2-yl)-2H-[1,2,4]triazol-3-yl]-ethyl}-[1,2,4]triazolo[1,5-a]pyrazine]
  IC50: 76 nM

## Cc1cnc(-c2nc(CCc3nc4c(C)ncc(C)n4n3)n(C)n2)s1 [5,8-Dimethyl-2-{2-[2-methyl-5-(5-methyl-thiazol-2-yl)-2H-[1,2,4]triazol-3-yl]-ethyl}-[,2,4]triazolo[1,5-a]pyrazine]
  IC50: 120 nM

## CCc1ccc(C)n2nc(CCc3nc(-c4ccccc4)cn3CCCN)nc12 [3-{2-[2-(8-Ethyl-5-methyl-[1,2,4]triazolo[1,5-a]pyridin-2-yl)-ethyl]-4-phenyl-imidazol-1-yl}-propylamine]
  IC50: 150 nM

## COc1ccc(C)n2nc(CCc3nc(-c4ccccc4)nn3CCC#N)nc12 [3-{5-[2-(8-Methoxy-5-methyl-[1,2,4]triazolo[1,5-a]pyridin-2-yl)-ethyl]-3-phenyl-[1,2,4]triazol-1-yl}-propionitrile]
  IC50: 45 nM

## CCc1ccc(C)n2nc(CCc3nc(-c4ccccc4)nn3C(C)C)nc12 [8-Ethyl-2-[2-(2-isopropyl-5-phenyl-2H-[1,2,4]triazol-3-yl)-ethyl]-5-methyl-[1,2,4]triazolo[1,5-a]pyridine]
  IC50: 40 nM

## COCCn1nc(-c2ccccc2)nc1CCc1nc2c(C)ncc(C)n2n1 [2-{2-[2-(2-Methoxy-ethyl)-5-phenyl-2H-[1,2,4]triazol-3-yl]-ethyl}-5,8-dimethyl-[1,2,4]triazolo[1,5-a]pyrazine]
  IC50: 14 nM

## CCCn1nc(-c2ccccc2)nc1CCc1nc2c(OC)ccc(C)n2n1 [8-Methoxy-5-methyl-2-[2-(5-phenyl-2-propyl-2H-[1,2,4]triazol-3-yl)-ethyl]-[1,2,4]triazolo[1,5-a]pyridine]
  IC50: 37 nM

## COc1ccc(C)n2nc(CCc3nc(-c4ccccc4)nn3CC(F)(F)F)nc12 [8-Methoxy-5-methyl-2-{2-[5-phenyl-2-(2,2,2-trifluoro-ethyl)-2H-[1,2,4]triazol-3-yl]-ethyl}-[1,2,4]triazolo[1,5-a]pyridine]
  IC50: 180 nM

## Cc1ncc(C)n2nc(CCc3nc(-c4ncco4)nn3C)nc12 [5,8-Dimethyl-2-[2-(2-methyl-5-oxazol-2-yl-2H-[1,2,4]triazol-3-yl)-ethyl]-[1,2,4]triazolo[1,5-a]pyrazine]
  IC50: 120 nM

## Cc1ncc(C)n2nc(CCc3nc(-c4nccs4)nn3C)nc12 [5,8-Dimethyl-2-[2-(2-methyl-5-thiazol-2-yl-2H-[1,2,4]triazol-3-yl)-ethyl]-[1,2,4]triazolo[1,5-a]pyrazine]
  IC50: 36 nM

## Cc1cc(C)n2nc(CCc3nc(-c4ccccc4)nn3C)nc2n1 [5,7-Dimethyl-2-[2-(2-methyl-5-phenyl-2H-[1,2,4]triazol-3-yl)-ethyl]-[1,2,4]triazolo[1,5-a]pyrimidine]
  IC50: 59 nM

## Cc1ncc(C)n2nc(CCc3nc(-c4ccccn4)nn3C)nc12 [5,8-Dimethyl-2-[2-(2-methyl-5-pyridin-2-yl-2H-[1,2,4]triazol-3-yl)-ethyl]-[1,2,4]triazolo[1,5-a]pyrazine]
  IC50: 39 nM

## Cc1ncc(C)n2nc(CCc3nc(-c4cncs4)nn3C)nc12 [5,8-Dimethyl-2-[2-(2-methyl-5-thiazol-5-yl-2H-[1,2,4]triazol-3-yl)-ethyl]-[1,2,4]triazolo[1,5-a]pyrazine]
  IC50: 26 nM

## Cc1cccn2nc(CCc3nc(-c4ccccc4)nn3C)nc12 [8-Methyl-2-[2-(2-methyl-5-phenyl-2H-[1,2,4]triazol-3-yl)-ethyl]-[1,2,4]triazolo[1,5-a]pyridine]
  IC50: 170 nM

## COc1cccn2nc(CCc3nc(-c4ccccc4)nn3C)nc12 [8-Methoxy-2-[2-(2-methyl-5-phenyl-2H-[1,2,4]triazol-3-yl)-ethyl]-[1,2,4]triazolo[1,5-a]pyridine]
  IC50: 560 nM

## CCc1ccc(C)n2nc(CCc3nc(-c4ccccc4)nn3CCC#N)nc12 [3-{5-[2-(8-Ethyl-5-methyl-[1,2,4]triazolo[1,5-a]pyridin-2-yl)-ethyl]-3-phenyl-[1,2,4]triazol-1-yl}-propionitrile]
  IC50: 14 nM

## Cc1cnc(C)n2nc(CCc3nc(-c4ccccc4)nn3C)nc12 [5,8-Dimethyl-2-[2-(2-methyl-5-phenyl-2H-[1,2,4]triazol-3-yl)-ethyl]-[1,2,4]triazolo[1,5-c]pyrimidine]
  IC50: 36 nM
